# Read-outs that look alike come from different tables or passages of the source. Non-standard residues stand in square brackets, D forms with d. Residues, ends and D or L forms follow the SMILES beside them. No end group written: not given here. *: point of attachment. Palmitoyl = CCCCCCCCCCCCCCCC(=O)*; Myristoyl = CCCCCCCCCCCCCC(=O)*; Aib = CC(C)(N)C(=O)O
# Key:
# glucagon receptor = target: T1, glucagon receptor (Homo sapiens, UniProt P47871); experiment: Functional assay-cAMP synthesis, luciferase reporter in HEK293 cells, glucagon receptor; type: cell-based; conditions: for % Relative activity at the Receptor for Glucagon: relative to the native hormone; for Glucagon Receptor % relative activity: activity relative to the native hormone at the indicated receptor; for % Activity of Glucagon: Table 21, relative to the native peptide
# T1 construct: expressed in transfected cells; host or cells: HEK293
# T1 sequence (P47871 26-477): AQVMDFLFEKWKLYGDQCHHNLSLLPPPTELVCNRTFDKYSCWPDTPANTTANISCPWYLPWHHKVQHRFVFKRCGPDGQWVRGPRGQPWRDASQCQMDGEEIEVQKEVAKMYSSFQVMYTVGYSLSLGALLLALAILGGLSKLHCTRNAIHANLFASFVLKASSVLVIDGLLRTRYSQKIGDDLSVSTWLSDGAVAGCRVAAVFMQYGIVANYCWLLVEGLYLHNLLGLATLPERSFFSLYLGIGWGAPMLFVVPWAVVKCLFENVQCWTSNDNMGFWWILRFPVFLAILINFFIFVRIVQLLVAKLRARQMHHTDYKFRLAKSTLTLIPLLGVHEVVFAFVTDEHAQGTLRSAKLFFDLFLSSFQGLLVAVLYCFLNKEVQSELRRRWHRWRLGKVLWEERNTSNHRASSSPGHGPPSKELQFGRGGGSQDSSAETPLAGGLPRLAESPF
# GIP receptor = target: T2, GIP receptor (Homo sapiens, UniProt P48546); experiment: Functional assay-cAMP synthesis, luciferase reporter in HEK293 cells, GIP receptor; type: cell-based; conditions: for % Relative activity at the Receptor for GIP: relative to the native hormone; for GIP Receptor % relative activity: activity relative to the native hormone at the indicated receptor; for EC50: read-out: GIP Receptor EC50, cAMP induction, in vitro, as in Example 14
# T2 construct: expressed in transfected cells; host or cells: HEK293
# T2 sequence (P48546 22-466): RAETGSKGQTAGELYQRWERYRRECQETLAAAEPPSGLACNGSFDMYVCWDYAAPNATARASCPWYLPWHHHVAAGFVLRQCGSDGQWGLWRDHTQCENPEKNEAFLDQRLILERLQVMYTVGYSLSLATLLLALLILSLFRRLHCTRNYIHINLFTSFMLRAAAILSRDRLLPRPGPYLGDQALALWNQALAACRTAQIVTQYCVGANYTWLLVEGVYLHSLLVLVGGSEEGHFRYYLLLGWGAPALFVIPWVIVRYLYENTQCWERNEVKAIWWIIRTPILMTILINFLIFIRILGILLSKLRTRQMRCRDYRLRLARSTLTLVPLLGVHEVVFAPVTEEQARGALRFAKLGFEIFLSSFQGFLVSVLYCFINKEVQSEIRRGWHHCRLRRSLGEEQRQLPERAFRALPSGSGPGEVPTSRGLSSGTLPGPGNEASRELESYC
# GLP-1 receptor = GLP-1 receptor (Homo sapiens, UniProt P43220); conditions: for % Relative activity at the Receptor for GLP-1: relative to the native hormone; for GLP-1 Receptor % relative activity: activity relative to the native hormone at the indicated receptor; for EC50: read-out: GLP-1 Receptor EC50, cAMP induction, in vitro, as in Example 14; for % Activity of GLP-1: Table 21, relative to the native peptide
# GLP-1 receptor, sequence (P43220 24-463, species assumed): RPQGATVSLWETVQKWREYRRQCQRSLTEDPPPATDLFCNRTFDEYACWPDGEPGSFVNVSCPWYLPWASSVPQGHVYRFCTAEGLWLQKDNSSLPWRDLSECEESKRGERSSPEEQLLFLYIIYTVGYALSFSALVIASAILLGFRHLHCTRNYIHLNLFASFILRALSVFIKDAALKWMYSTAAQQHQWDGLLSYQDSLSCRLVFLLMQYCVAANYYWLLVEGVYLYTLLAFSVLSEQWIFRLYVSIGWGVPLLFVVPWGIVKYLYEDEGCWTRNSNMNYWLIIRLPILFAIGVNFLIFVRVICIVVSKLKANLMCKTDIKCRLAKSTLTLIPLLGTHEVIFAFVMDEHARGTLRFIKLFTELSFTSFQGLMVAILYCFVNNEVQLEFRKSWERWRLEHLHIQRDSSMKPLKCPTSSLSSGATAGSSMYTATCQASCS
# Experimental: Peptide absorbance readings were obtained from UV Absorbance measurements at 280 nm on a Genesys 6 Spectrophotometer (Thermo Electron Corporation). Beer's Law was used to calculate solution concentrations based on the number of tryptophan and tyrosine residues in each analog. At the end of the incubation, 100 μL LucLite luminescence substrate reagent was added to each well, the plate sealed and shaken, and placed into a Wallac Trilux luminescence counter for cAMP detection.
# HEK293 cells were co-transfected with the GcgR or GLP-1R cDNAs and a luciferase reporter gene-linked to a cAMP response element (CRE). […] The plate was incubated for 10 min in the dark and light output was quantified on a MicroBeta1450 liquid scintillation counter (Perkin-Elmer, Wellesley, Mass.).
compound,measurement,setting,value
CCCCCCCCCCCCCC(=O)NCCCC[C@H](NC(=O)[C@H](CO)NC(=O)[C@@H]1CCCN1C(=O)[C@@H]1CCCN1C(=O)[C@@H]1CCCN1C(=O)[C@H](C)NC(=O)CNC(=O)[C@H](CO)NC(=O)[C@H](CO)NC(=O)[C@@H]1CCCN1C(=O)CNC(=O)CNC(=O)[C@H](CC(N)=O)NC(=O)[C@H](CCSC)NC(=O)[C@H](CC(C)C)NC(=O)[C@H](Cc1c[nH]c2ccccc12)NC(=O)[C@H](CS)NC(=O)[C@@H](NC(=O)[C@H](Cc1ccccc1)NC(=O)[C@H](CCC(=O)O)NC(=O)[C@H](CCCCN)NC(=O)[C@H](C)NC(=O)[C@H](C)NC(=O)[C@H](CCC(N)=O)NC(=O)C(C)(C)NC(=O)[C@H](CC(=O)O)NC(=O)[C@H](CC(C)C)NC(=O)[C@H](Cc1ccc(O)cc1)NC(=O)[C@H](CCCCN)NC(=O)[C@H](CO)NC(=O)[C@H](Cc1ccc(O)cc1)NC(=O)[C@H](CC(=O)O)NC(=O)[C@H](CO)NC(=O)[C@@H](NC(=O)[C@H](Cc1ccccc1)NC(=O)[C@@H](NC(=O)CNC(=O)[C@H](CCC(N)=O)NC(=O)C(C)(C)NC(=O)[C@@H](N)Cc1c[nH]cn1)[C@@H](C)O)[C@@H](C)O)[C@@H](C)CC)C(N)=O [mt-347] (H-H[Aib]QGTFTSDYSKYLD[Aib]QAAKEFICWLMNGGPSSGAPPPSK(Myristoyl)-NH2; N-terminus assumed),% Relative activity at the Receptor for Glucagon,glucagon receptor; Table 35,111%
same,Glucagon Receptor % relative activity,glucagon receptor,111.36%
same,% Relative activity at the Receptor for GIP,GIP receptor; Table 35,0.7%
same,GIP Receptor % relative activity,GIP receptor,0.70%
same,% Relative activity at the Receptor for GLP-1,GLP-1 receptor; Table 35,67%
same,GLP-1 Receptor % relative activity,GLP-1 receptor,67.07%
mt-352: pegylated glucagon peptide of Table 34 (H[Aib]QGTFTSDYSKYLD[Aib]QAAKEFIC(PEG 40 kDa)WLMNGGPSSGAPPPSK-NH2),GIP Receptor % relative activity,GIP receptor,0.01%
same,EC50,GIP receptor,51.1 nM
same,GLP-1 Receptor % relative activity,GLP-1 receptor,23.08%
same,EC50,GLP-1 receptor,0.0273 nM
CCCCCCCCCCCCCCCC(=O)NCCCC[C@H](NC(=O)[C@H](CO)NC(=O)[C@@H]1CCCN1C(=O)[C@@H]1CCCN1C(=O)[C@@H]1CCCN1C(=O)[C@H](C)NC(=O)CNC(=O)[C@H](CO)NC(=O)[C@H](CO)NC(=O)[C@@H]1CCCN1C(=O)CNC(=O)CNC(=O)[C@H](C)NC(=O)[C@H](CC(C)C)NC(=O)[C@H](CC(C)C)NC(=O)[C@H](Cc1c[nH]c2ccccc12)NC(=O)[C@H](CC(N)=O)NC(=O)[C@@H](NC(=O)[C@H](Cc1ccccc1)NC(=O)[C@H](CCC(=O)O)NC(=O)C(C)(C)NC(=O)[C@H](C)NC(=O)[C@H](C)NC(=O)[C@H](CCC(N)=O)NC(=O)[C@H](CCCCN)NC(=O)[C@H](CC(=O)O)NC(=O)[C@H](CC(C)C)NC(=O)[C@H](Cc1ccc(O)cc1)NC(=O)[C@@H](NC(=O)[C@H](CO)NC(=O)[C@H](Cc1ccc(O)cc1)NC(=O)[C@H](CC(=O)O)NC(=O)[C@H](CO)NC(=O)[C@@H](NC(=O)[C@H](Cc1ccccc1)NC(=O)[C@@H](NC(=O)CNC(=O)[C@H](CCC(N)=O)NC(=O)C(C)(C)NC(=O)[C@@H](N)Cc1ccc(O)cc1)[C@@H](C)O)[C@@H](C)CC)[C@@H](C)CC)C(C)C)C(N)=O [mt-358] (H-Y[Aib]QGTFISDYSIYLDKQAA[Aib]EFVNWLLAGGPSSGAPPPSK(Palmitoyl)-NH2),% Relative activity at the Receptor for Glucagon,glucagon receptor; Table 36,710.29%
same,% Relative activity at the Receptor for GIP,GIP receptor; Table 36,313.61%
same,% Relative activity at the Receptor for GLP-1,GLP-1 receptor; Table 36,11.89%
"mt-349 (H[Aib]QGTFTSDYSKYLDEQAAKEFIC(PEG 40 kDa)WLMNGGPSSGAPPPSK(Myristoyl)-NH2; also: acylated with a C14 fatty acyl group, site not given here)",Glucagon Receptor % relative activity,glucagon receptor,3.82%
same,EC50,"glucagon receptor; read-out: Glucagon Receptor EC50, cAMP induction, in vitro, as in Example 14",0.549 nM
same,GIP Receptor % relative activity,GIP receptor,0.18%
same,EC50,GIP receptor,1.99 nM
same,GLP-1 Receptor % relative activity,GLP-1 receptor,286.36%
same,EC50,GLP-1 receptor,0.0022 nM
"CCCCCCCCCCCCCCCCCC(=O)NCCCC[C@H](NC(=O)[C@H](CC(=O)O)NC(=O)[C@H](CO)NC(=O)[C@@H](NC(=O)[C@H](Cc1ccccc1)NC(=O)[C@@H](NC(=O)CNC(=O)[C@H](CCC(N)=O)NC(=O)C(C)(C)NC(=O)[C@@H](N)Cc1c[nH]cn1)[C@@H](C)O)[C@@H](C)O)C(=O)N[C@@H](CO)C(=O)N[C@@H](CCCCN)C(=O)N[C@@H](Cc1ccc(O)cc1)C(=O)N[C@@H](CC(C)C)C(=O)N[C@@H](CC(=O)O)C(=O)NC(C)(C)C(=O)N[C@@H](CCCNC(=N)N)C(=O)N[C@@H](CCCNC(=N)N)C(=O)N[C@@H](C)C(=O)N[C@@H](CCC(N)=O)C(=O)N[C@@H](CC(=O)O)C(=O)N[C@@H](Cc1ccccc1)C(=O)N[C@H](C(=O)N[C@@H](CCC(N)=O)C(=O)N[C@@H](Cc1c[nH]c2ccccc12)C(=O)N[C@@H](CC(C)C)C(=O)N[C@@H](CCSC)C(=O)N[C@@H](CC(N)=O)C(=O)N[C@H](C(N)=O)[C@@H](C)O)C(C)C [AIB2, AIB16, K10(C18) Gluc Amide]",% Activity of Glucagon,glucagon receptor,212.5%
same,% Activity of GLP-1,GLP-1 receptor,88.9%
"CCCCCCCCCCCCCCCC(=O)NCCCC[C@H](NC(=O)[C@H](CC(=O)O)NC(=O)[C@H](CO)NC(=O)[C@@H](NC(=O)[C@H](Cc1ccccc1)NC(=O)[C@@H](NC(=O)CNC(=O)[C@H](CCC(N)=O)NC(=O)[C@@H](CO)NC(=O)[C@@H](N)Cc1c[nH]cn1)[C@@H](C)O)[C@@H](C)O)C(=O)N[C@@H](CO)C(=O)N[C@@H](CCCCN)C(=O)N[C@@H](Cc1ccc(O)cc1)C(=O)N[C@@H](CC(C)C)C(=O)N[C@@H](CC(=O)O)C(=O)N[C@@H](CCC(=O)O)C(=O)N[C@@H](CCCNC(=N)N)C(=O)N[C@@H](CCCNC(=N)N)C(=O)N[C@@H](C)C(=O)N[C@@H](CCCCN)C(=O)N[C@@H](CC(=O)O)C(=O)N[C@@H](Cc1ccccc1)C(=O)N[C@H](C(=O)N[C@@H](CCC(N)=O)C(=O)N[C@@H](Cc1c[nH]c2ccccc12)C(=O)N[C@@H](CC(C)C)C(=O)N[C@@H](CCSC)C(=O)N[C@@H](CC(N)=O)C(=O)N[C@H](C(N)=O)[C@@H](C)O)C(C)C [dS2, E16/K20, K10(C16) Gluc Amide, HXQGTFTSDKSKYLDERRAKDFVQWLMNT-amide]",% Activity of Glucagon,glucagon receptor,44.7%
same,% Activity of GLP-1,GLP-1 receptor,19.5%
"mt-351: pegylated glucagon peptide of Table 34 (H[Aib]QGTFTSDYSKYLD[Aib]QAAKEFIC(PEG 40 kDa)WLMNGGPSSGAPPPSK(Myristoyl)-NH2; also: acylated with a C14 fatty acyl group, site not given here)",GIP Receptor % relative activity,GIP receptor,0.09%
same,EC50,GIP receptor,4.12 nM
same,GLP-1 Receptor % relative activity,GLP-1 receptor,150.00%
same,EC50,GLP-1 receptor,0.0042 nM
"CCCCCCCCCCCCCCCC(=O)NCCCC[C@H](NC(=O)[C@H](CC(=O)O)NC(=O)[C@H](CO)NC(=O)[C@@H](NC(=O)[C@H](Cc1ccccc1)NC(=O)[C@@H](NC(=O)CNC(=O)[C@H](CCC(N)=O)NC(=O)C(C)(C)NC(=O)[C@@H](N)Cc1c[nH]cn1)[C@@H](C)O)[C@@H](C)O)C(=O)N[C@@H](CO)C(=O)N[C@@H](CCCCN)C(=O)N[C@@H](Cc1ccc(O)cc1)C(=O)N[C@@H](CC(C)C)C(=O)N[C@@H](CC(=O)O)C(=O)NC(C)(C)C(=O)N[C@@H](CCCNC(=N)N)C(=O)N[C@@H](CCCNC(=N)N)C(=O)N[C@@H](C)C(=O)N[C@@H](CCC(N)=O)C(=O)N[C@@H](CC(=O)O)C(=O)N[C@@H](Cc1ccccc1)C(=O)N[C@H](C(=O)N[C@@H](CCC(N)=O)C(=O)N[C@@H](Cc1c[nH]c2ccccc12)C(=O)N[C@@H](CC(C)C)C(=O)N[C@@H](CCSC)C(=O)N[C@@H](CC(N)=O)C(=O)N[C@H](C(N)=O)[C@@H](C)O)C(C)C [AIB2, AIB16, K10(C16) Gluc Amide]",% Activity of Glucagon,glucagon receptor,170%
same,% Activity of GLP-1,GLP-1 receptor,72.3%
"CCCCCCCCCCCCCCCCCC(=O)NCCCC[C@H](NC(=O)[C@H](CC(=O)O)NC(=O)[C@H](CO)NC(=O)[C@@H](NC(=O)[C@H](Cc1ccccc1)NC(=O)[C@@H](NC(=O)CNC(=O)[C@H](CCC(N)=O)NC(=O)[C@@H](CO)NC(=O)[C@@H](N)Cc1c[nH]cn1)[C@@H](C)O)[C@@H](C)O)C(=O)N[C@@H](CO)C(=O)N[C@@H](CCCCN)C(=O)N[C@@H](Cc1ccc(O)cc1)C(=O)N[C@@H](CC(C)C)C(=O)N[C@@H](CC(=O)O)C(=O)N[C@@H](CCC(=O)O)C(=O)N[C@@H](CCCNC(=N)N)C(=O)N[C@@H](CCCNC(=N)N)C(=O)N[C@@H](C)C(=O)N[C@@H](CCCCN)C(=O)N[C@@H](CC(=O)O)C(=O)N[C@@H](Cc1ccccc1)C(=O)N[C@H](C(=O)N[C@@H](CCC(N)=O)C(=O)N[C@@H](Cc1c[nH]c2ccccc12)C(=O)N[C@@H](CC(C)C)C(=O)N[C@@H](CCSC)C(=O)N[C@@H](CC(N)=O)C(=O)N[C@H](C(N)=O)[C@@H](C)O)C(C)C [dS2, E16/K20, K10(C18) Gluc Amide]",% Activity of Glucagon,glucagon receptor,196%
same,% Activity of GLP-1,GLP-1 receptor,60%

# Reference: patent publication US9150632B2 (Indiana University Research and Technology Corporation, priority 2009, dated 2015)
